For orientation: Km means the substrate concentration at which the rate is half of its maximum.

Two molecules from article PMC12799524, “Putative new biomarkers for renal transporter-mediated drug-drug interactions: Characterization as substrates of organic cation transporter 2, multidrug and toxin extrusion protein 1, and other important drug transporters” (Drug Metabolism and Disposition, 2025) can be followed below.

The target of series [1] is T1, MATE1 (Homo sapiens, UniProt Q96FL8).
T1 sequence (Q96FL8 1-570): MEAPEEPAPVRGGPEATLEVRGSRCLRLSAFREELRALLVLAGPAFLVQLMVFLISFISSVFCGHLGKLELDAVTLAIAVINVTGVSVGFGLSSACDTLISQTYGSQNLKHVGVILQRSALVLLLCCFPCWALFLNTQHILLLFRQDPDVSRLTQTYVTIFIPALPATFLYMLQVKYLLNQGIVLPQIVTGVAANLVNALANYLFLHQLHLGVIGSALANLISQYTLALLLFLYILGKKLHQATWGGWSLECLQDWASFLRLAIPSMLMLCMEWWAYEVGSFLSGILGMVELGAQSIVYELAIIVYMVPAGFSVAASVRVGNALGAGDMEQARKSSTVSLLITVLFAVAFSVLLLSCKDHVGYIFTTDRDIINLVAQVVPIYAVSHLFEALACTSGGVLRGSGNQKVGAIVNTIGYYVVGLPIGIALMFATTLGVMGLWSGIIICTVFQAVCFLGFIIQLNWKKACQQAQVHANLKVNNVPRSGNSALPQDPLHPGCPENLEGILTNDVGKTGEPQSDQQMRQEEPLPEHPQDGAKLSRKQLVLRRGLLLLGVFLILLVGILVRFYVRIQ
As to the kind of experiment: Uptake assay in HEK-MATE1 vs HEK-VC cells (pH 8.0). As to conditions: 0 minutes and 5 minutes without added substance. The method, then:
(§1) Transport experiments were performed 48 hours after seeding.
(§2) The intracellular background of all 5 compounds in HEK cells at the beginning of the uptake experiments was investigated 48 hours after seeding without incubation with transport buffer (ie, 0 minutes). […] Then, cells were lysed with ice-cold 80% MeOH containing the aforementioned recovery standards. In addition, the impact of a 5-minute incubation period with transport buffer without added substance was investigated.

Series [2] concerns the target T2, human OCT2 (Homo sapiens, UniProt O15244).
T2 sequence (O15244 1-555): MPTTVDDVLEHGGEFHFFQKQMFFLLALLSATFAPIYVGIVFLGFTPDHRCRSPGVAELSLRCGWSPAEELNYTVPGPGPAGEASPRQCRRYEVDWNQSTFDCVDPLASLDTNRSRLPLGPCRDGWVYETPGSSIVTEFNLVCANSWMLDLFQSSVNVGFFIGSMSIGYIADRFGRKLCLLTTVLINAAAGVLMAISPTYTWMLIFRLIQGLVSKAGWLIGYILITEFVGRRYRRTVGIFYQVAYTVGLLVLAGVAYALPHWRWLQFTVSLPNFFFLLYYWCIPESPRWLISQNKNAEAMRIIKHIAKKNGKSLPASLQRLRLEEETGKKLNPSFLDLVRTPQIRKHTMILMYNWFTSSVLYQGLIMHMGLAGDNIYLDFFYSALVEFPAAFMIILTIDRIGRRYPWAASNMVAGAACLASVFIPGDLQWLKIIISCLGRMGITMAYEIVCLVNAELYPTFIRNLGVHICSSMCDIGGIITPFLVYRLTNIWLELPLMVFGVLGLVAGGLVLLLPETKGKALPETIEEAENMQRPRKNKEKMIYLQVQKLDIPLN
As to the kind of experiment: Uptake assay in HEK-OCT2 vs HEK-VC cells. Also noted: expressed in transfected cells; host or cells: HEK293 (HEK-OCT2). It is filed as in vitro ADME. The method, then: as §1, §2

Substrate in series [3]: NCCc1c[nH]c2ccc(O)cc12

`N=C(N)NCCCC(=O)O` [4-Guanidinobutanoic acid, 4-guanidinobutanoic acid]: in series [1], the “Intracellular background in HEK-MATE1 cells compared to HEK-VC cells” value is “significantly lower”. Besides, the “Intracellular background in HEK-OCT2 cells compared to HEK-VC cells” value in series [2] (0 minutes, without added substance) is given as “significantly higher”; in series [2] (5 minutes in transport buffer without added substance) it was “reduced to the amount in HEK-VC cells”.

B1: human OCT2 (Homo sapiens) (protein)
chain: T2 sequence (O15244 1-555)
For B1, the Michaelis-Menten constant (Km) in series [3] came out at 412.0 ± 143.6 µM.
